Measurements from patent US9283236B2 (HUMAN MATRIX SCIENCES, LLC, priority 2008, dated 2016).
“Also recorded” adds a separate entry of the source.

Experiments:
[1] = system: human fetal cardiac fibroblasts; test: One-step RT-PCR of collagen type I mRNA in cardiac fibroblast cultures; format: cell-based; conditions: 1 to 50 nmol/L, 24 hours, normalized to GAPDH mRNA, vs untreated control
[2] = system: human fetal cardiac fibroblasts; test: Quantitative assay of [3H]valine-labeled insoluble elastin; format: cell-based; conditions: 72 hours
[3] = system: adult human cardiac fibroblasts; test: Anti-elastin immunostaining in adult cardiac fibroblasts; format: cell-based; conditions: 1 to 50 nmol/L, 72 hours
Experimental: Control cell cultures received an equal amount of the solvent vehicle. […] ScienCell (San Diego, Calif.). At the end of the 72-hour incubation period with the indicated treatment, confluent cultures were either fixed in ice-cold 100% methanol at -20° C. […] The cultures were then incubated for 1 hour with 10 μg/ml polyclonal antibody to tropoelastin or with 10 μg/ml polyclonal antibody to collagen type I. All cultures were then incubated for an additional hour with fluorescein-conjugated goat anti-rabbit or with fluorescein-conjugated rabbit anti-goat secondary antibodies to detect elastin and collagen type I staining, respectively. Nuclei were counterstained with propidium iodide. Secondary antibody alone was used as a control. All of the cultures were then mounted in Elvanol and examined with a Nikon Eclipse […] microscope attached to a cooled charge-coupled device camera (Retiga EX; QImaging, Surrey, BC, Canada) and a computer-generated video analysis system (Image-Pro Plus software; Media Cybernetics, Silver Spring, Md.).

[4] = system: c-Src; test: Western blot of phospho-c-Src (Tyr416); format: cell-based, human
Experimental: (§1) Western blotting—Confluent fetal human cardiac fibroblast cultures were exposed with or without the treatment specified for the indicated time points. At the end of each experiment cells were lysed using an RIPA buffer (50 mM Tris.HCl, pH 7.4; 150 mM NaCl; 1 mM EDTA; 10 mM NaF; 1% Triton X-100; 0.1% SDS; 1% Na deoxycholate) containing a cocktail of antiproteases (20 μg/ml leupeptin, 10 μg/ml aprotinin, 0.1 mM PMSF, 1 mM DTT) and antiphosphates ([…] orthovanadate, 2 μg/ml pepstatin). Then 40-60 μg of protein extract was resuspended in sample buffer (0.5 M Tris.HCl, pH 6.8; 10% SDS; 10% glycerol; 4% 2-β-mercaptoethanol; and 0.05% bromophenol blue), and the mixture was boiled for 5 minutes. Protein lysates were resolved by precast SDS-PAGE gel (4-12% gradient), transferred to nitrocellulose membranes, blocked for an hour, and then immunoblotted with polyclonal anti-MR antibody, anti-phospho-c-Src (Tyr416) antibody, anti-phospho-Akt (Ser473) antibody, anti-Gα13 (goat) antibody, anti-SCAP2 antibody, or with buffer (TBS-T) at 4° C. overnight. All blots were then incubated with the appropriate HRP-conjugated secondary antibodies for an hour and examined using the enhanced chemiluminescence detection system. Blots were stripped and reprobed using specified antibodies. […] The degree of expression or phosphorylation of immunodetected signaling molecules was measured by densitometry.

[5] = system: adult human cardiac fibroblasts; test: One-step RT-PCR of elastin mRNA in adult cardiac fibroblasts; format: cell-based; conditions: 1 to 50 nmol/L, 24 hours, normalized to GAPDH mRNA
[6] = system: human fetal cardiac fibroblasts; test: Cytotoxic effects of supraphysiological aldosterone in cardiac fibroblast cultures; format: cell-based; conditions: aldosterone 100 nmol/L and 1 μmol/L
[7] = system: Akt; test: Western blot of phospho-Akt (Ser473); format: cell-based, human
Experimental: as §1

[8] = system: human fetal cardiac fibroblasts; test: Quantitative assay of [3H]valine-labeled immunoprecipitable tropoelastin; format: cell-based; conditions: 1 to 50 nmol/L, 72 hours, vs untreated
Experimental: Fetal human cardiac fibroblasts were grown to confluence in 35-mm culture dishes (100,000 cells/dish) in quadruplicate. […] Cultures were incubated for 72 hours, and the soluble and insoluble elastin were assessed separately in each dish. The cells were extensively washed with phosphate-buffered saline, and the soluble proteins present in the intracellular compartments were extracted overnight at 4° C. with 0.1 mol/L acetic acid in the presence of proteinase inhibitors. After centrifugation, the supernatants were precleaned by 30-minute incubation with 50 μl of 4% protein A-beaded agarose, and then 500 μl of the supernatant was incubated with 5 μg of polyclonal antibody to tropoelastin for 2 hours and subsequently with 50 μl of 4% protein A-beaded agarose for 3 hours at 4° C. The protein A-containing beads were sedimented by centrifugation, washed with immunoprecipitation buffer, mixed with scintillation fluid, and counted. […] The resulting pellets containing the insoluble elastin were then solubilized by boiling in 200 μl of 5.7 N HCl for 1 hour, and the aliquots were mixed in scintillation fluid and counted. […] Final results reflecting amounts of metabolically labeled insoluble elastin in individual cultures were normalized per their DNA content and expressed as counts per minute per 1 μg of DNA.

[9] = system: human fetal cardiac fibroblasts; test: Immunostaining of collagen type I fibers in confluent cultures; format: cell-based; conditions: 1 to 50 nmol/L, 72 hours
[10] = system: human fetal cardiac fibroblasts; test: One-step RT-PCR of elastin mRNA in cardiac fibroblast cultures; format: cell-based
[11] = system: Gα13 and c-Src; test: Co-immunoprecipitation of Gα13 and c-Src; format: cell-based, human
[12] = system: IGF-IR; test: IGF-IR immunoprecipitation and anti-phosphotyrosine blot; format: cell-based, human
Experimental: Cells were lysed using an radioimmunoprecipitation assay buffer [50 mmol/L Tris-HCl, pH 7.4, 150 mmol/L NaCl, 1 mmol/L ethylenediamine tetraacetic acid, 10 mmol/L NaF, 1% Triton X-100, 0.1% sodium dodecyl sulfate, 1% sodium deoxycholate containing a cocktail of antiproteases (20 μg/ml leupeptin, 10 μg/ml aprotinin, 0.1 mmol/L phenylmethylsulfonyl fluoride, and 1 mmol/L dithiothreitol) and antiphosphates ([…] orthovanadate and 2 μg/ml pepstatin)], and 300 μg of protein extract was incubated with an antibody against IGF-IRβ for 1 hour at 4° C., followed by the addition of 4% protein A-beaded agarose left overnight, as previously described. The resulting protein-antibody conjugate was centrifuged at 4° C. and washed four times with phosphate-buffered saline. The final pellet was resuspended in sample buffer (0.5 mol/L Tris-HCl, pH 6.8, 10% sodium dodecyl sulfate, 10% glycerol, 4% 2-B-mercaptoethanol, and 0.05% bromphenol blue), and the mixture was boiled for 5 minutes. Proteins were resolved by 12% sodium dodecyl sulfate-polyacrylamide gel electrophoresis, transferred to nitrocellulose membranes, and then immunoblotted with anti-p-Tyr or anti-IGF-IR antibodies. The degree of expression or phosphorylation of immunodetected signaling molecules was measured by densitometry.
At the end of each experiment the cells were lysed as specified above, and 300 μg of protein extract were then precleared for 1 hour with normal rabbit agarose conjugated-IgG at 4° C. and incubated with rabbit polyclonal antibodies against IGF-IR-β, c-Src, or with Gα13 for 1 hour at 4° C., followed by the addition of 4% protein A-beaded agarose and left overnight. The resulting protein-antibody conjugate was centrifuged at 4° C. and washed four times with PBS. The final pellet was resuspended in sample buffer, and the proteins were resolved. Following immunoprecipitation of IGF-IR-β, the membrane was immunoblotted using monoclonal anti-p-Tyr antibody, stripped, and reprobed using anti-IGF-IR-β. Following immunoprecipitation of c-Src, the membranes were immunoblotted using polyclonal goat antibodies against anti-Gα13, while those immunoprecipitated with anti-Gα13 were developed with monoclonal anti-c-Src antibody. Blots were stripped and re-probed for equal loading.
The degree of expression or phosphorylation of immunodetected signaling molecules was measured by densitometry.

[13] = system: human fetal cardiac fibroblasts; test: Immunostaining of elastic fibers with anti-elastin antibody; format: cell-based; conditions: 10 μM PP2, 1 hour pretreatment, 50 nM aldosterone
Experimental: At the end of the 72-hour incubation period with the indicated treatment, confluent cultures were either fixed in ice-cold 100% methanol at −20° C. (for elastin staining) or in 4% paraformaldehyde at room temperature (for collagen staining) for 30 minutes and blocked with 1% normal goat serum for 1 hour at room temperature. The cultures were then incubated for 1 hour with 10 μg/ml polyclonal antibody to tropoelastin or with 10 μg/ml polyclonal antibody to collagen type I. All cultures were then incubated for an additional hour with fluorescein-conjugated goat anti-rabbit or with fluorescein-conjugated rabbit anti-goat secondary antibodies to detect elastin and collagen type I staining, respectively. Nuclei were counterstained with propidium iodide. Secondary antibody alone was used as a control. All of the cultures were then mounted in Elvanol and examined with a Nikon Eclipse E1000 microscope attached to a cooled charge-coupled device camera (Retiga EX; QImaging, Surrey, BC, Canada) and a computer-generated video analysis system (Image-Pro Plus software; Media Cybernetics, Silver Spring, Md.).
Immunostaining—At the end of the 72-hour incubation period with the indicated treatment, confluent cultures were fixed in cold 100% methanol at −20° C. […]

[14] = system: rat myocardial infarction model; test: Rat myocardial infarction model, postinfarction scar; format: in vivo; conditions: treated during the postinfarction period, vs vehicle-treated animals
[15] = 50 nM aldosterone, 30 minutes to 16 hours
[16] = 10 μM PP2 1 hour preincubation or 72 hour Gα13 siRNA transfection

C[C@]12CCC(=O)C=C1CC[C@@H]1[C@@H]2[C@@H](O)C[C@]2(C=O)[C@@H](C(=O)CO)CC[C@@H]12 [aldosterone]
collagen type I mRNA transcript levels [1]: significant increase in the steady-state level of collagen type I mRNA; also recorded: significantly increased collagen type I mRNA transcript levels | [3H]valine incorporation into insoluble elastin ([2]; 1 to 50 nmol/L, vs untreated): proportional increase; also recorded: incorporate significantly more [^3H]valine into extracellular insoluble elastin | number of immunodetectable elastic fibers, adult cardiac fibroblasts [3]: significantly increased the number of immunodetectable elastic fibers | phosphorylation of c-Src on Tyr416 ([4]; 50 nM aldosterone, 10 minutes): increased phosphorylation of c-Src on Tyr416; also recorded: leading to activation of c-Src | elastin mRNA transcript levels, adult cardiac fibroblasts [5]: dose-dependently increased elastin mRNA transcript levels | cytotoxic effects [6]: did not produce any cytotoxic effects | basal phosphorylation of Akt ([7]; 50 nM aldosterone, 10 minutes): significant increase in the basal phosphorylation of Akt | [3H]valine-labeled tropoelastin [8]: proportional increase; also recorded: up to approximately three times more | deposition of collagen fibers [9]: subsequent deposition of collagen fibers | time at which tropoelastin mRNA begins to significantly increase [10, 15]: 1 h | time of maximum tropoelastin mRNA level [10, 15]: 3 to 6 h | elastin mRNA transcript levels ([10]; 1 to 50 nmol/L, 24 hours, normalized to GAPDH mRNA, vs untreated control): heightened elastin mRNA levels, in a dose-dependent manner; also recorded: dose-dependently increased elastin mRNA transcript levels | time at which the Gα13/c-Src interaction was most evident ([11]; 50 nM aldosterone for 1, 5 or 10 minutes): 5 min | interaction between c-Src and Gα13 ([11]; vs untreated controls): increases the interaction between Gα13 and c-Src | IGF-IR tyrosine phosphorylation, aldosterone together with IGF-I vs IGF-I alone ([12]; 50 nmol/L aldosterone with 10, 25 or 50 ng/ml IGF-I, serum-free, 10 minutes): exhibit higher levels of IGF-IR tyrosine phosphorylation than their respective counterparts treated with the same doses of IGF-I alone | tyrosine phosphorylation of the IGF-IR ([12]; 10-minute exposure, 10% fetal bovine serum, aldosterone or BSA-conjugate 50 nM, IGF-I 100 ng/ml): transient increase in tyrosine phosphorylation of the IGF-IR above basal level; also recorded: produced a transient increase in tyrosine phosphorylation of the IGF-IR in control cultures; also recorded: significant increase in tyrosine phosphorylation of IGF-IR over basal levels | tyrosine phosphorylation of the IGF-IR, dependence on serum ([12]; presence vs absence of fetal bovine serum): induced a similar effect only in the presence of serum

CC(C)(C)n1nc(-c2ccc(Cl)cc2)c2c(N)ncnc21 [PP2]
effect on aldosterone-induced increase in insoluble elastin production ([2]; agent added 1 hour before aldosterone (50 nM or 1 to 50 nmol/L)): eliminated the aldosterone-induced increase in the net deposition of insoluble elastin | effect on aldosterone-induced upregulation in elastic fiber production [13]: abolished an increase in elastin mRNA levels and the consequent upregulation in elastic fiber production | effect on aldosterone-induced c-Src phosphorylation [4, 16]: abolished this effect | effect on aldosterone-induced increase in phosphorylation of Akt [7, 16]: is indeed eliminated; also recorded: eliminates this effect | effect on aldosterone-induced increase in elastin mRNA levels ([10]; agent added 1 hour (CT04 2 hours) before aldosterone, 24 hours): abolished an increase in elastin mRNA levels

COC(=O)[C@@H]1CC2=CC(=O)CC[C@]2(C)[C@@]23O[C@@H]2C[C@@]2(C)[C@@H](CC[C@@]24CCC(=O)O4)[C@H]13 [eplerenone]
postinfarction scar composition [14]: produced scars with abundant elastic fibers
